Source: patent US20170107207A1, “AMINOPYRAZOLONE DERIVATIVE” (DAIICHI SANKYO COMPANY, LIMITED, priority 2014, published 2017)

Tests used:
Type in all cases: cell-based
CAPAN-2 = assay: Cell growth inhibition test, CAPAN-2; details: Homo sapiens, 72 h; CAPAN-2, Pancreatic cancer, 3 days, CellTiter-Glo
Method: (§1) A cell growth inhibition test was carried out by treating a cultured cancer cell line with a test compound for a given period and then counting the number of viable cells by CellTiter-Glo Luminescent Cell Viability Assay (manufactured by Promega Corp.).
(§2) The following cells were inoculated to a 384-well plate containing the compound prepared in advance at predetermined concentrations. […]
(§3) The cells thus inoculated were cultured at 37° C. for 3 days under 5% CO2. […] Then, luminescence intensity was measured using a plate reader.
(§4) The number of viable cells and luminescence intensity have been confirmed to correlate with each other. Therefore, the rate of cell growth was calculated according to the following expression: Rate of cell growth (T/C %) of a test compound-supplemented well=100×[(B−C)/(A−C)] wherein A represents the luminescence intensity (final culture date) of a test compound-free well; B represents the luminescence intensity (final culture date) of a test compound-containing well; and C represents the luminescence intensity (day of cell inoculation) of a well at the start of contact of the cells with the test compound.
(§5) T/C % at the concentration of each of the serially diluted test compounds was determined. […]

CCRF-CEM = assay: Cell growth inhibition test, CCRF-CEM; details: Homo sapiens, 72 h, Leukemia, 3 days, CellTiter-Glo
Method: as §1, §2, §3, §4, §5

SNU-1 = assay: Cell growth inhibition test, SNU-1; details: Homo sapiens, SNU1, 72 h; SNU-1, Stomach cancer, 3 days, CellTiter-Glo
Method: as §1, §2, §3, §4, §5

HUH-7 = assay: Cell growth inhibition test, HUH-7; details: Homo sapiens, 72 h; HUH-7, Liver cancer, 3 days, CellTiter-Glo
Method: as §1, §2, §3, §4, §5

RAMOS = assay: Cell growth inhibition test, RAMOS; details: Homo sapiens, 72 h, Lymphoma, 3 days, CellTiter-Glo
Method: as §1, §2, §3, §4, §5

A-172 = assay: Cell growth inhibition test, A-172; details: Homo sapiens, 72 h; A-172, Brain tumor Central Nerve System, 3 days, CellTiter-Glo
Method: as §1, §2, §3, §4, §5

A375 = assay: Cell growth inhibition test, A375; details: Homo sapiens, A-375, 72 h; A375, Skin cancer, 3 days, CellTiter-Glo
Method: as §1, §2, §3, §4, §5

PANC-1 = assay: Cell growth inhibition test, PANC-1; details: Homo sapiens, 72 h; PANC-1, Pancreatic cancer, 3 days, CellTiter-Glo
Method: as §1, §2, §3, §4, §5

COLO 829 = assay: Cell growth inhibition test, COLO 829; details: Homo sapiens, 72 h; COLO 829, Skin cancer, 3 days, CellTiter-Glo
Method: as §1, §2, §3, §4, §5

OVCAR-5 = assay: Cell growth inhibition test, OVCAR-5; details: Homo sapiens, 72 h; OVCAR-5, Ovary cancer, 3 days, CellTiter-Glo
Method: as §1, §2, §3, §4, §5

COLO 205 = assay: Cell growth inhibition test, COLO 205; details: Homo sapiens, 72 h; COLO 205, Large intestine cancer, 3 days, CellTiter-Glo
Method: as §1, §2, §3, §4, §5

DMS 273 = assay: Cell growth inhibition test, DMS 273; details: Homo sapiens, 72 h; DMS 273, Lung cancer, 3 days, CellTiter-Glo
Method: as §1, §2, §3, §4, §5

NCI-H460 = assay: Cell growth inhibition test, NCI-H460; details: Homo sapiens, 72 h; NCI-H460, Lung cancer, 3 days, CellTiter-Glo
Method: as §1, §2, §3, §4, §5

RPMI 8226 = assay: Cell growth inhibition test, RPMI 8226; details: Homo sapiens, 72 h; RPMI 8226, Multiple myeloma, 3 days, CellTiter-Glo
Method: as §1, §2, §3, §4, §5

CAL-51 = assay: Cell growth inhibition test, CAL-51; details: Homo sapiens, 72 h; CAL-51, Breast cancer, 3 days, CellTiter-Glo
Method: as §1, §2, §3, §4, §5

MKN45 = assay: Cell growth inhibition test, MKN45; details: Homo sapiens, MKN-45, 72 h; MKN45, Stomach cancer, 3 days, CellTiter-Glo
Method: as §1, §2, §3, §4, §5

SJSA-1 = assay: Cell growth inhibition test, SJSA-1; details: Homo sapiens, 72 h; SJSA-1, Bone and soft tissue tumor, 3 days, CellTiter-Glo
Method: as §1, §2, §3, §4, §5

Q: How did the GI50 (CAPAN-2) turn out when `CCOc1ncc(Cl)cc1C(=O)NCC(C)(C)CC(=O)Nc1c([C@H](C)CN(C)C)n(C)n(-c2ccccc2)c1=O` [Example 73, 5-Chloro-N-[4-({5-[(1R)-2-(dimethylamino)-1-methylethyl]-1-methyl-3-oxo-2-phenyl-2,3-dihydro-1H-pyrazol-4-yl}amino)-2,2-dimethyl-4-oxobutyl]-2-ethoxypyridine-3-carboxamide] was run?
A: 980 nM

Q: And the GI50 (CCRF-CEM)?
A: 590 nM

Q: What about the GI50 (SNU-1) of the same compound?
A: 710 nM

Q: And the GI50 (HUH-7)?
A: 900 nM

Q: And the GI50 (RAMOS)?
A: 220 nM

Q: And the GI50 (A-172)?
A: 600 nM

Q: And the GI50 (A375)?
A: 560 nM

Q: And the GI50 (PANC-1)?
A: 2000 nM

Q: What about the GI50 (COLO 829) of the same compound?
A: 480 nM

Q: And the GI50 (OVCAR-5)?
A: 750 nM

Q: What about the GI50 (COLO 205) of the same compound?
A: 850 nM

Q: And the GI50 (DMS 273)?
A: 780 nM

Q: And the GI50 (NCI-H460)?
A: 730 nM

Q: What about the GI50 (RPMI 8226) of the same compound?
A: 180 nM

Q: What about the GI50 (CAL-51) of the same compound?
A: 1300 nM

Q: And the GI50 (MKN45)?
A: 1100 nM

Q: What about the GI50 (SJSA-1) of the same compound?
A: 1300 nM

Q: What does the source list for `CCOc1cc(F)c(Cl)cc1C(=O)NCC(C)(C)CC(=O)Nc1c(COC)n(C)n(-c2ccccc2)c1=O` [Example 113, 5-Chloro-2-ethoxy-4-fluoro-N-(4-{[5-(methoxymethyl)-1-methyl-3-oxo-2-phenyl-2,3-dihydro-1H-pyrazol-4-yl]amino}-2,2-dimethyl-4-oxobutyl)benzamide]?
A: GI50 (CAPAN-2): 750 nM; GI50 (CCRF-CEM): 530 nM; GI50 (SNU-1): 580 nM; GI50 (HUH-7): 360 nM; GI50 (RAMOS): 160 nM; GI50 (A-172): 490 nM; GI50 (A375): 260 nM; GI50 (PANC-1): 1200 nM; GI50 (COLO 829): 350 nM; GI50 (OVCAR-5): 570 nM; GI50 (COLO 205): 720 nM; GI50 (DMS 273): 540 nM; GI50 (NCI-H460): 550 nM; GI50 (RPMI 8226): 160 nM; GI50 (CAL-51): 620 nM; GI50 (MKN45): 1000 nM; GI50 (SJSA-1): 870 nM

Q: Which GI50 (CAPAN-2) does the source give for `CCOc1ccc(Cl)cc1C(=O)NCC(C)(C)CC(=O)Nc1c([C@H](C)CN(C)C)n(C)n(-c2ccccc2)c1=O` [Example 68, 5-Chloro-N-[4-({5-[(1R)-2-(dimethylamino)-1-methylethyl]-1-methyl-3-oxo-2-phenyl-2,3-dihydro-1H-pyrazol-4-yl}amino)-2,2-dimethyl-4-oxobutyl]-2-ethoxybenzamide] here?
A: 640 nM

Q: What about the GI50 (CCRF-CEM) of the same compound?
A: 220 nM

Q: What about the GI50 (SNU-1) of the same compound?
A: 230 nM

Q: What about the GI50 (HUH-7) of the same compound?
A: 670 nM

Q: And the GI50 (RAMOS)?
A: 130 nM

Q: And the GI50 (A-172)?
A: 380 nM

Q: And the GI50 (A375)?
A: 280 nM

Q: What about the GI50 (PANC-1) of the same compound?
A: 900 nM

Q: And the GI50 (COLO 829)?
A: 200 nM

Q: And the GI50 (OVCAR-5)?
A: 540 nM

Q: What about the GI50 (COLO 205) of the same compound?
A: 310 nM

Q: And the GI50 (DMS 273)?
A: 310 nM

Q: And the GI50 (NCI-H460)?
A: 310 nM

Q: What about the GI50 (RPMI 8226) of the same compound?
A: 140 nM

Q: What about the GI50 (CAL-51) of the same compound?
A: 800 nM

Q: And the GI50 (MKN45)?
A: 480 nM

Q: What about the GI50 (SJSA-1) of the same compound?
A: 750 nM
